# According to US20230279024A1, “TRIAZINE COMPOUND AND COMPOSITION AND USE THEREOF” (BEIJING FINDCURE BIOSCIENCES, LTD., priority 2020, published 2023):
# Columns and labels:
# AXL (h) kinase = AXL (h) kinase (Homo sapiens (Human), UniProt P30530); test: AXL (h) kinase activity test (EZ Reader mobility shift, FLPeptide30); format: biochemical; conditions: ATP 100 μM, AXL 1 nM
# Experimental: The effect of the disclosed compounds as protein kinase inhibitors can be evaluated by the following experiments. The AXL (h) kinase activity of the compounds of the invention is tested by the following methods:
# Reagents used in the experiment were AXL (Carna Bioscience, Cat No.: 08-107) and FLPeptide30 (PerkinElmer, Cat No.: 760430). The instruments involved were thermotank (Thermo Scientific), oscillator (QILINBEIER), EZ Reader (PerkinElmer, Cat No.: 122919), Non-contact stage pipetting system (Labcyte Inc., Cat No.: Echo 550), and non-contact nanoliter pipetting system (TECAN, Cat No.: EVO200).
# Compound dilution: 1) Dissolve the compound in DMSO to the appropriate concentration; 2) Using TECAN EVO200 to dilute 10 concentrations in 384 microplates by three times gradient, the highest concentration is 1 mM; Echo550 was used to transfer 20 nL solution from the dilution plate to the test plate.
# 2) Add 15 μL solution 1 to each well of the test plate and incubate at room temperature for 30 minutes.
# 4) Add 5 μL solution 2 to start the reaction, and the final volume of each well is 20 μL.
# 5) Incubated at 25° C. for 90 min, and then added 75 μL stop solution (containing 0.5 M EDTA) to terminate the reaction.
# 6) The sample of each well was analyzed using EZ reader.
# 1) Based on the measured conversion rate (CR), the Remaining Activity (%) of the kinase was calculated according to the following function:
# 2) XLFit (Equation 201) software was used to fit IC50.
# The above methods can be used to obtain the inhibitory IC50 and/or inhibitory constant Ki.
# CYP3A4 [1] = molecular target: T1, CYP3A4 (Homo sapiens (Human), UniProt P08684); conditions: hepatocytes, 2 days, 10 μM
# Experimental: (§1) Cryopreservation of human primary hepatocytes was resuscitated in medium after take out from liquid nitrogen. […] Plates were incubated at 37° C. and 5% CO2 for 4-6 hours to confirm the formation of monolayer cells attached to the wall. Then the adherent culture medium was changed into hepatocyte culture medium and the culture was continued overnight.
# After the test compounds and positive control inducers were co-incubated with cells, the incubation medium was removed. […] After the samples were extracted and processed, the generation of metabolites and the kinase activities of CYP1A2, 2B6 and 3A4 was quantitatively detected by LC-MS/MS, respectively.
# The induction of test substance on each subenzyme was determined by detecting the generation rate of metabolites of CYP450 subenzyme substrates. The relative activity of each subenzyme was expressed as a percentage of the relative blank control, and the data were calculated according to the following formula:
# Fold of induction=sample subenzyme activity/blank subenzyme activity
# Relative positive control activity (PC %)=(Fold of induction of sample group—Fold of induction of blank group)/(Fold of induction of positive control group—Fold of induction of blank group)×100
# CYP3A4 [2] = molecular target: T1, CYP3A4; conditions: hepatocytes, 2 days, 10 μM; remark: listed apart in the source
# Experimental: as §1
# After the test compound and positive control inducer were co-incubated with cells, the medium was removed and mercaptoethanol was added for cell lysis. Total RNA in cells was extracted with RNA extraction kit, and then transcribed into cDNA with cDNA reverse transcription kit. The 10 μL cDNA template was taken and analyzed on the fluorescence quantitative PCR instrument to obtain the Ct value.
# The gene expression data were corrected by internal reference 18S, and the relative expression differences were determined by the method of ΔΔCt commonly used in fluorescence quantitative PCR.
# The ΔCt, ΔΔCt and relative expression difference values of the target genes were calculated according to the following formula:
# ΔCt=Ct value of target gene−Ct value of internal reference 18S
# ΔΔCt=ΔCt of experimental group or positive control group−ΔCt of blank control group
# Relative expression difference (fold of induction)=2−ΔΔ^Ct
# CYP3A4/5 = test: Inhibition of human liver microsomes CYP450, 3A4/5; format: in vitro ADME; conditions: compounds 10 μM (positive control: concentration not given)
# Ba/F3 AXL cells = test: Cell activity test: growth inhibition of Ba/F3 AXL cell line (CTG, 72 h); format: cell-based; conditions: Mus musculus, BaF3
# Experimental: This experiment was conducted by detecting the inhibitory effect of compounds on the growth of Ba/F3 AXL cell line and Ba/F3 parental cell line. Cells in logarithmic growth stage were harvested and counted by platelet counter. Trypan blue rejection method was used to detect cell viability to ensure that the cell viability was above 90%. Adjust cell concentration; 90 μL cell suspension was added to 96-well plates, respectively; Cells in 96-well plates were cultured overnight at 37° C., 5% CO2 and 95% humidity. A 10-fold drug solution was prepared, with the highest concentration of 10 μM, and a total of 9 concentrations were diluted at 3.16 times the ratio. 10 μL drug solution was added to each well of the 96-well plate inoculated with cells, and three wells were set for each drug concentration; 96-well plates were incubated at 37° C., 5% CO2 and 95% humidity for 72 h, and CTG analysis was performed. Thaw the CTG reagent and balance the cell plates to room temperature for 30 minutes. Add the same volume of CTG solution to each well and vibrate on a fixed-rail shaker for 5 minutes to crack the cells. Place the cell plates at room temperature for 20 minutes to stabilize the cold light signal and read the cold light value. The GraphPad Prism 5.0 software was used to analyze the data, and the nonlinear S-curve regression was used to fit the data to obtain the dose-effect curve, and the IC50 value was calculated accordingly. Cell survival rate (%)=(Lum drug to be tested −Lum culture medium control)/(Lum cell control−Lum culture medium control)×100%.
# AXL (h) kinase, sequence (P30530 473-894): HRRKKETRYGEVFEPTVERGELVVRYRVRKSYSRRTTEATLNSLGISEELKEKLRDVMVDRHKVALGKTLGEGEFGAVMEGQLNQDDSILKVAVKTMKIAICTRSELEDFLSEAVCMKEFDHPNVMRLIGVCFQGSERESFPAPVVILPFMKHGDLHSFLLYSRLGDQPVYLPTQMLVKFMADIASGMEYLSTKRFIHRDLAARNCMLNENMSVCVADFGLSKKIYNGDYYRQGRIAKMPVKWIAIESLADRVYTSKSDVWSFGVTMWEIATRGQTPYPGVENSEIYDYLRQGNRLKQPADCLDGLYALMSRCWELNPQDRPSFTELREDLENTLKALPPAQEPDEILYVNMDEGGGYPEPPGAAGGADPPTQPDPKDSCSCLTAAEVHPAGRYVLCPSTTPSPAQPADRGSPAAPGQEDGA
Compound,IC50 (AXL (h) kinase),Enzymatic activity CYP3A4 Fold of induction (CYP3A4 [1]),Gene expression CYP3A4 Fold of induction (CYP3A4 [2]),Inhibitory rate (%) 3A4/5 (CYP3A4/5),IC50 (Ba/F3 AXL cells)
"Nc1ncnn2c1c(-c1ccc(NC(=O)c3c4n(n(-c5ccccn5)c3=O)CCOC4)cc1F)cc2[C@H]1CC[C@H](O)CC1 [example 31, N-(4-(4-amino-7-((1r,4r)-4-hydroxycyclohexyl)pyrrolo[2,1-f][1,2,4]triazin-5-yl)-3-fluorophenyl)-2-oxo-1-(pyridin-2-yl)-2,4,6,7-tetrahydro-1H-pyrazolo[5,1-c][1,4]oxazine-3-carboxamide]",5 to 50 nM,0.913,0.944,No inhibition,< 5 nM
"Nc1ncnn2c1c(-c1ccc(NC(=O)c3c4n(n(-c5ccccc5)c3=O)CCOC4)cc1F)cc2[C@H]1CC[C@H](O)CC1 [example 22, N-(4-(4-amino-7-((1r,4r)-4-hydroxycyclohexyl)pyrrolo[2,1-f][1,2,4]triazin-5-yl)-3-fluorophenyl)-2-oxo-1-phenyl-2,4,6,7-tetrahydro-1H-pyrazolo[5,1-c][1,4]oxazine-3-carboxamide]",5 to 50 nM,1.02,1.31,No inhibition,< 5 nM
"Nc1ncnn2c(C3CCN(C(=O)C4CC4)CC3)cc(-c3ccc(NC(=O)c4c5n(n(-c6ccccn6)c4=O)CCCC5)cc3F)c12 [example 10, N-(4-(4-amino-7-(1-(cyclopropanecarbonyl)piperidin-4-yl)pyrrolo[2,1-f][1,2,4]triazin-5-yl)-3-fluorophenyl)-2-oxo-1-(pyridin-2-yl)-1,2,4,5,6,7-hexahydropyrazolo[1,5-a]pyridine-3-carboxamide]",–,0.779,24.7,No inhibition,< 5 nM
"CC(C)C(=O)N1CCC(c2cc(-c3ccc(NC(=O)c4c5n(n(-c6ccccc6)c4=O)CCCC5)cc3)c3c(N)ncnn23)CC1 [example 19, N-(4-(4-amino-7-(1-isobutyrylpiperidin-4-yl)pyrrolo[2,1-f][1,2,4]triazin-5-yl)phenyl)-2-oxo-1-phenyl-1,2,4,5,6,7-hexahydropyrazolo[1,5-a]pyridine-3-carboxamide]",5 to 50 nM,1.5,284,–,< 5 nM
"Nc1ncnn2c1c(-c1ccc(NC(=O)c3c4n(n(-c5ccccn5)c3=O)CCCC4)cc1)cc2[C@H]1CC[C@H](O)CC1 [example 20, N-(4-(4-amino-7-((1r,4r)-4-hydroxycyclohexyl)pyrrole[2,1-f][1,2,4]triazin-5-yl)phenyl)-2-oxo-1-(pyridin-2-yl)-1,2,4,5,6,7-hexahydropyrazol[1,5-a]pyridine-3-carboxamide]",–,–,–,No inhibition,5 to 50 nM
"CC(C)(O)C(=O)N1CCC(c2cc(-c3ccc(NC(=O)c4c5n(n(-c6ccccn6)c4=O)CCCC5)cc3F)c3c(N)ncnn23)CC1 [example 29, N-(4-(4-amino-7-(1-(2-hydroxy-2-methylpropanoyl)piperidin-4-yl)pyrrolo[2,1-f][1,2,4]triazin-5-yl)-3-fluorophenyl)-2-oxo-1-(pyridin-2-yl)-1,2,4,5,6,7-hexahydropyrazolo[1,5-a]pyridine-3-carboxamide]",5 to 50 nM,1.06,6.37,–,< 5 nM
"Nc1ncnn2c(C3CCN(C(=O)C4CC4)CC3)cc(-c3ccc(NC(=O)c4c5n(n(-c6ccccn6)c4=O)CCCC5)cc3)c12 [example 36, N-(4-(4-amino-7-(1-(cyclopropanecarbonyl)piperidin-4-yl)pyrrolo[2,1-f][1,2,4]triazin-5-yl)phenyl)-2-oxo-1-(pyridin-2-yl)-1,2,4,5,6,7-hexahydropyrazolo[1,5-a]pyridine-3-carboxamide]",5 to 50 nM,–,–,No inhibition,< 5 nM
"CC(C)(O)C(=O)N1CCC(c2cc(-c3ccc(NC(=O)c4c5n(n(-c6ccccn6)c4=O)CCOC5)cc3)c3c(N)ncnn23)CC1 [example 15, N-(4-(4-amino-7-(1-(2-hydroxy-2-methylpropanoyl)piperidin-4-yl)pyrrolo[2,1-f][1,2,4]triazin-5-yl)phenyl)-2-oxo-1-(pyridin-2-yl)-2,4,6,7-tetrahydro-1H-pyrazolo[5,1-c][1,4]oxazine-3-carboxamide]",5 to 50 nM,–,–,–,5 to 50 nM
CC(C)(C)C(=O)N1CCC(c2cc(-c3ccc(NC(=O)c4c5n(n(-c6ccccn6)c4=O)CCOC5)cc3F)c3c(N)ncnn23)CC1 [example 37],5 to 50 nM,–,–,–,< 5 nM
"Nc1ncnn2c1c(-c1ccc(NC(=O)c3c4n(n(-c5ccccc5)c3=O)CCOC4)cc1)cc2[C@H]1CC[C@H](O)CC1 [example 7, N-(4-(4-amino-7-((1r,4r)-4-hydroxycyclohexyl)pyrrolo[2,1-f][1,2,4]triazin-5-yl)phenyl)-2-oxo-1-phenyl-2,4,6,7-tetrahydro-1H-pyrazolo[5,1-c][1,4]oxazine-3-carboxamide]",< 5 nM,–,–,No inhibition,–
"CC(C)C(=O)N1CCC(c2cc(-c3ccc(NC(=O)c4c5n(n(-c6ccccn6)c4=O)CCOC5)cc3F)c3c(N)ncnn23)CC1 [example 9, N-(4-(4-amino-7-(1-isobutyrylpiperidin-4-yl)pyrrolo[2,1-f][1,2,4]triazin-5-yl)-3-fluorophenyl)-2-oxo-1-(pyridin-2-yl)-2,4,6,7-tetrahydro-1H-pyrazolo[5,1-c][1,4]oxazine-3-carboxamide]",5 to 50 nM,–,–,–,5 to 50 nM
"Nc1ncnn2c(C3CCNCC3)cc(-c3ccc(NC(=O)c4c5n(n(-c6ccccc6)c4=O)CCOC5)cc3)c12 [example 2, N-(4-(4-amino-7-(piperidin-4-yl)pyrrolo[2,1-f][1,2,4]triazin-5-yl)phenyl)-2-oxo-1-phenyl-2,4,6,7-tetrahydro-1H-pyrazolo[5,1-c][1,4]oxazine-3-carboxamide]",> 100 nM,–,–,–,50 to 100 nM
Nc1ncnn2c(C3CCN(C(=O)C4CC4)CC3)cc(-c3ccc(NC(=O)c4c5n(n(-c6cccnc6)c4=O)CCCC5)cc3)c12 [example 49],5 to 50 nM,–,–,–,5 to 50 nM
